The record followed here is US9850247B2 (Almac Discovery Limited, priority 2013, dated 2017).

The test system of data set [1] is phospho-cdc2 (Tyr15) in HT-29 cells. Put plainly: Effect on phosphorylation of cdc2 at Tyr15, PathScan ELISA (Method 2). The format is cell-based. The following applies: Homo sapiens, 8 h, eight hours incubation, read-out: HT29 pCDC2 method 2. As to the method: Method 2: Determining the Effect of Compounds on the phosphorylation of cdc2 at Tyr15
The colorectal cancer cell lines HT-29 and HCT-116 were purchased from the ATCC and routinely maintained in McCoy's Medium (Invitrogen) supplemented with 10% Foetal Calf Serum.
The cells were trypsinised from their growing vessel and counted, 100 μL of cell suspension containing 6000 cells was pipetted into black 96 well Co-star plates and incubated overnight to allow adherence to the surface at a temperature of 37° C. and an atmosphere of 5% CO2. Test compounds were formulated in DMSO and diluted in foetal calf serum supplemented medium. Incubating medium was removed by aspiration and diluted drug supplemented medium added to each well.
The plate was returned to the incubator for an additional eight hours at 37° C. and an atmosphere of 5% CO2. Post incubation, the drug supplemented medium was aspirated from each well and the cells were washed once in ice-cold phosphate buffered saline (PBS). 100 μL of cell lysis buffer (Cell Signalling Technologies #9803) containing 20 mM Tris, 150 mM NaCl, 1 mM EDTA, 1 mM EGTA, 1% Triton-X100, 2.5 mM sodium pyrophosphate, 1 mM glycerophosphate, 1 mM Na3VO4 and 1 μg/mL leupeptin was added to each well of the 96 well plate and incubated at 4° C. for 30 min. The samples on the plate were snap frozen at −80° C. until required. Immediately before the continuation of the assay, the sample plate was thawed and centrifuged at 4° C. for 10 min and the supernatant transferred to secondary tubes or 96 well plate.
Cell supernatant was mixed in a ratio of 1:1 with sample dilutent buffer and vortexed for one minute. 100 μL of diluted sample was pipetted into pre-coated plates containing a rabbit polyclonal antibody for phospho-cdc2 (Tyr15) (Cell Signalling Technologies PathScan kit #7176). The plate was sealed and incubated overnight at 4° C.
The plate seal was removed and the well contents aspirated, followed by 3×5 min washes with 200 μL of diluted wash buffer. Between each wash the plate was tapped firmly onto blotting paper to ensure the removal of all kit solution. 100 μL of kit detection antibody was added to each well and the plate re-sealed and incubated at 37° C. for 1 h. Post incubation the plate was washed and processed in a similar manner to that previously described.
100 μL of horseradish peroxidise-linked secondary antibody was added to each test well, the plate sealed and incubated for thirty minutes at 37° C. Post incubation, the plate was washed as previously stated, followed by the addition of 100 μL of 3,3′,5,5′ tetramethylbenzidine (TMB reagent). The plate was sealed and incubated at RT for 30 min.
100 μL of stop solution was added to each well and the underside of the plate wiped with a lint-free tissue, prior to spectrophotometric determination. Absorbance from each well was read at 450 nm within 30 min of the addition of the stop solution.
The percentage of phospho-cdc2 was calculated compared to DMSO control and plotted versus the concentration of inhibitor using GraphPad Prism. Data was fitted using non-linear regression analysis and IC50 values generated.
(In general: An ELISA detects its analyte on a solid surface through an enzyme-linked reagent.)

For data set [2], the target named is T1, human ether a go-go related gene (hERG) K′ channel (Homo sapiens, UniProt Q12809).
T1 construct: Essen BioScience
Kind of data set: hERG activity, IonWorks patch clamp electrophysiology (Method 6). The format is cell-based. As to the method: Method 6: Determination of hERG Activity
Compounds were tested for inhibition of the human ether a go-go related gene (hERG) K′ channel using IonWorks patch clamp electrophysiology at Essen BioScience. 8-Point concentration-response curves of the effect of compound on hERG current as a percentage of pre-compound signal were generated using 3-fold serial dilutions from 11 μM and results are reported as IC50 in μM.

Structures are written as SMILES.

T1 sequence (Q12809 whole entry): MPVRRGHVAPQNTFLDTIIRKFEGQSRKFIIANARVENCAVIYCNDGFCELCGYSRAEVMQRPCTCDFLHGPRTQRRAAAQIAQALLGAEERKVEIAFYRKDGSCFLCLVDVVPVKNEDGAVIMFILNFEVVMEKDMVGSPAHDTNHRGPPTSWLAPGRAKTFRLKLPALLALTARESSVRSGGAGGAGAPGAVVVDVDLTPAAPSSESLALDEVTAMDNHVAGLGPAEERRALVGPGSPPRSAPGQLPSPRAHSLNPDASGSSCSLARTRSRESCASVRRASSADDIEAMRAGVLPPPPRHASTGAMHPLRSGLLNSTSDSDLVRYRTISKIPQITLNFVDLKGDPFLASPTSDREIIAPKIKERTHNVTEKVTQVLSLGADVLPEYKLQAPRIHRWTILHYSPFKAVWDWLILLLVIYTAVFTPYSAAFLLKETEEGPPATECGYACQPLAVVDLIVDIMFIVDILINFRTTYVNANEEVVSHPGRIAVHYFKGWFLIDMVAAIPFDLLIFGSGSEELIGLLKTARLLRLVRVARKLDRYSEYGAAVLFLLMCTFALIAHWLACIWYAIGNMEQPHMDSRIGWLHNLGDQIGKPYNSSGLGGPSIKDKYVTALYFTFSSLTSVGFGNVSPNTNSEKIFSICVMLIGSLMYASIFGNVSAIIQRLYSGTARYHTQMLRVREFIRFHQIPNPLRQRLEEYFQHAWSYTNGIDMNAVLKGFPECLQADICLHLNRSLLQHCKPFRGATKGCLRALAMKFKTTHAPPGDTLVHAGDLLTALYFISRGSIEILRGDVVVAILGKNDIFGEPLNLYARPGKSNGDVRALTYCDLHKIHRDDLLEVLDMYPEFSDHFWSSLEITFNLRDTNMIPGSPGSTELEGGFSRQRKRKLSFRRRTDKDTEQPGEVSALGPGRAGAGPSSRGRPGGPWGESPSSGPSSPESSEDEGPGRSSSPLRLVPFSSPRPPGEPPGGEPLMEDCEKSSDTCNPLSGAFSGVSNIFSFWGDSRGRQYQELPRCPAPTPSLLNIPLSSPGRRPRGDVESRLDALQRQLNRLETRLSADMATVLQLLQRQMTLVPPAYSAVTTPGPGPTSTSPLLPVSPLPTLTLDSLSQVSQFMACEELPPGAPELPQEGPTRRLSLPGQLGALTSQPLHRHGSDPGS

Consider `C[C@@H]1CN(c2ccc(Nc3ncc4c(n3)N(C)CN(c3c(Cl)cccc3Cl)C4=O)cc2)CCN1` [Example 16, (R)-3-(2,6-Dichlorophenyl)-1-methyl-7-((4-(3-methylpiperazin-1-yl)phenyl)amino)-2,3-dihydropyrimido[4,5-d]pyrimidin-4(1H)-one], for which the IC50 is no more than 100 nM in data set [1] and greater than 10000 nM in data set [2].

For the compound `CNCc1cc(Nc2ncc3c(n2)N(C)CN(c2c(Cl)cccc2Cl)C3=O)ccc1N1CCOCC1` [Example 5, 3-(2,6-Dichlorophenyl)-1-methyl-7-((3-((methylamino)methyl)-4-morpholinophenyl)amino)-2,3-dihydropyrimido[4,5-d]pyrimidin-4(1H)-one], in data set [1], the IC50 was 100 to 1000 nM. In data set [2] (versus analogues from WO2013126656, WO2013013031 and WO2013059485), the “hERG inhibition compared with prior art analogues” value was “lower hERG inhibition”.

On to `CN1CN(c2c(Cl)cccc2Cl)C(=O)c2cnc(Nc3ccc(N4CCNCC4)cc3)nc21` [Example 1, 3-(2,6-Dichlorophenyl)-1-methyl-7-((4-(piperazin-1-yl)phenyl)amino)-2,3-dihydropyrimido[4,5-d]pyrimidin-4(1H)-one], for which the IC50 in data set [1] was 100 to 1000 nM; in data set [2] it was greater than 10000 nM.
